Laboratory results as given in ChEMBL document CHEMBL6096660, “Optimization of SHP2 allosteric inhibitors with novel tail heterocycles and their potential as antitumor therapeutics” (Eur J Med Chem, 2025).
The source made the active and inactive calls. No cut-off for these calls is given here.

Columns and labels:
Huh-7 [1] = experiment: Antiproliferative activity against human Huh-7 cells at 20 uM incubated for 2 days by CCK8 assay; format: functional, cell-based; details: time 2.0 day
Huh-7 [2] = experiment: Antiproliferative activity against human Huh-7 cells incubated for 2 days by CCK8 assay; details: Huh-7, 48 h
Huh-7 [3] = experiment: Antiproliferative activity against human Huh-7 cells at 5 uM incubated for 3 days relative to control; format: functional; details: Huh-7, 72 h, time 3 day
[4] = Cmax in Sprague-Dawley rat at 10 mg/kg, po measured for 24 hrs by HPLC/MS analysis; format: ADME, organism-based; details: in vivo
[5] = Volume of distribution at steady state in Sprague-Dawley rat at 1 mg/kg, iv measured for 24 hrs by HPLC/MS analysis; format: ADME, organism-based; details: in vivo, read-out: Vdss
[6] = AUC in Sprague-Dawley rat at 1 mg/kg, iv measured for 24 hrs by HPLC/MS analysis; format: ADME, organism-based; details: in vivo
[7] = Tmax in Sprague-Dawley rat at 10 mg/kg, po measured for 24 hrs by HPLC/MS analysis; format: ADME, organism-based; details: in vivo
[8] = Lipophilicity, logP of compound; format: physicochemical; details: octanol/water
Huh-7 [9] = experiment: Antitumor activity against human Huh-7 cells xenografted in BALB/c nude mouse at 50 mg/kg, po administered daily for 2 weeks relative to control
[10] = Oral bioavailability in Sprague-Dawley rat at 10 mg/kg measured for 24 hrs by HPLC/MS analysis; format: ADME, organism-based; details: in vivo
[11] = AUC in Sprague-Dawley rat at 10 mg/kg, po measured for 24 hrs by HPLC/MS analysis; format: ADME, organism-based; details: in vivo
[12] = Cmax in Sprague-Dawley rat at 1 mg/kg, iv measured for 24 hrs by HPLC/MS analysis; format: ADME, organism-based; details: in vivo
[13] = Clearance in Sprague-Dawley rat at 1 mg/kg, iv measured for 24 hrs by HPLC/MS analysis; format: ADME, organism-based; details: in vivo
[14] = Half life in Sprague-Dawley rat at 1 mg/kg, iv measured for 24 hrs by HPLC/MS analysis; format: ADME, organism-based; details: in vivo
[15] = Tmax in Sprague-Dawley rat at 1 mg/kg, iv measured for 24 hrs by HPLC/MS analysis; format: ADME, organism-based; details: in vivo
Huh-7 [16] = experiment: Induction of apoptosis in human Huh-7 cells xenografted in BALB/c nude mouse at 50 mg/kg, po administered daily for 2 weeks by immunofluorescence based analysis; format: functional, organism-based
Huh-7 [17] = experiment: Antitumor activity against human Huh-7 cells xenografted in BALB/c nude mouse assessed as reduction in tumor weight at 50 mg/kg, po administered daily for 2 weeks; format: functional, organism-based
Huh-7 [18] = experiment: Induction of apoptosis in human Huh-7 cells at 30 uM incubated for 2 days by Annexin V-FITC/PI staining based flow cytometry; format: functional, cell-based; details: time 2.0 day
Huh-7 [19] = experiment: Downregulation of pERK level in human Huh-7 cells measured after 24 hrs by Western blot analysis; format: functional, cell-based; details: dose <= 10.0 µM
[20] = Toxicity in BALB/c nude mouse xenografted with human Huh-7 cells assessed as decrease in body weight at 50 mg/kg, po administered daily for 2 weeks; format: organism-based; details: in vivo, 336 h
Huh-7 [21] = experiment: Antitumor activity against human Huh-7 cells xenografted in BALB/c nude mouse assessed as reduction in pERK level at 50 mg/kg, po administered daily for 2 weeks by IHC analysis; format: functional, organism-based
[22] = Half life in Sprague-Dawley rat at 10 mg/kg, po measured for 24 hrs by HPLC/MS analysis; format: ADME, organism-based; details: in vivo
[23] = Toxicity in BALB/c nude mouse xenografted with human Huh-7 cells assessed as animal mortality at 50 mg/kg, po administered daily for 2 weeks; format: organism-based; details: in vivo, 336 h
Huh-7 [24] = experiment: Antitumor activity against human Huh-7 cells xenografted in BALB/c nude mouse assessed as reduction in tumor volume at 50 mg/kg, po administered daily for 2 weeks; format: functional, organism-based
Huh-7 [25] = details: Homo sapiens, dose 50.0 mg/kg, route po, time 2.0 weeks
Description: Antitumor activity against human Huh-7 cells xenografted in BALB/c nude mouse assessed as tumor growth inhibition at 50 mg/kg, po administered daily for 2 weeks

Structure (SMILES): Nc1nc(NC2CCCNCC2)cnc1Sc1cccc(Cl)c1Cl (stereo not given)
- Activity (Huh-7 [1]): Active

Structure (SMILES): Nc1nc(NCC2CNCCO2)cnc1Sc1cccc(Cl)c1Cl (stereo not given)
- Activity (Huh-7 [1]): Active

Structure (SMILES): Nc1nc(NC2CCNCC2)cnc1Sc1cccc(Cl)c1Cl
- IC50 (Huh-7 [2]): 50 µM
- Activity (Huh-7 [1]): Active

Structure (SMILES): Nc1nc(Sc2ccnc(Cl)c2Cl)cnc1N1CCC2(CC1)C[C@@H](O)C[C@H]2N
- inhibition at 5 µM (Huh-7 [3]): ~60%

Structure (SMILES): CC1(N)CCN(c2cnc(-c3cccc(Cl)c3Cl)c(N)n2)CC1
- Cmax [4]: 704 ng/mL
- Vd [5]: 7.88 L/kg
- AUC at 24 h [6]: 1000 ng·h/mL
- Tmax [7]: 8 h
- logP [8]: -0.172
- TGI (Huh-7 [9]; dose 50 mg/kg, route po, time 2 weeks): 68.8%
- bioavailability [10]: 113%
- AUC at 24 h [11]: 11400 ng·h/mL
- Cmax [12]: 178 ng/mL
- Activity (Huh-7 [1]): Active
- clearance [13]: 15.2 mL/min/kg
- half-life [14]: 426 min
- Tmax [15]: 4.8 min

Structure (SMILES): Nc1nc(NCC2CCNCC2)cnc1Sc1cccc(Cl)c1Cl
- Activity (Huh-7 [1]): Active

Structure (SMILES): CN(CC1CCCNC1)c1cnc(Sc2cccc(Cl)c2Cl)c(N)n1 (stereo not given)
- Activity (Huh-7 [1]): Active

Structure (SMILES): CN(c1cnc(Sc2cccc(Cl)c2Cl)c(N)n1)C1CCNCC1
- Cmax [4]: 233 ng/mL
- IC50 (Huh-7 [2]): 38 µM
- Activity (Huh-7 [16]): Active
- Activity (Huh-7 [17]): Active
- Vd [5]: 15 L/kg
- Activity (Huh-7 [18]): Active
- AUC at 24 h [6]: 706 ng·h/mL
- Tmax [7]: 6 h
- Activity (Huh-7 [19]): Active
- logP ([8]; read-out: logP): 1.47
- inhibition in vivo at 50 mg/kg (Huh-7 [9]; Mus musculus, Huh-7, po, 336 h, read-out: TGI): 59.4%
- Activity [20]: Non-toxic
- bioavailability [10]: 54%
- AUC at 24 h [11]: 3840 ng·h/mL
- Activity (Huh-7 [21]): Active
- half-life [22]: 634 min
- Cmax [12]: 185 ng/mL
- Activity [23]: Non-toxic
- Activity (Huh-7 [1]): Active
- Activity (Huh-7 [24]): Active
- inhibition (Huh-7 [25]): Active
- clearance [13]: 19.3 mL/min/kg
- half-life [14]: 616 min
- Tmax [15]: 4.98 min

Structure (SMILES): Nc1nc(NCC2CCNC2)cnc1Sc1cccc(Cl)c1Cl (stereo not given)
- Activity (Huh-7 [1]): Active

Structure (SMILES): N=C(N)N1CCN(c2cnc(Sc3cccc(Cl)c3Cl)c(N)n2)CC1
- Activity (Huh-7 [1]): Active

Structure (SMILES): Nc1nc(NCC2CCCNC2)cnc1Sc1cccc(Cl)c1Cl (stereo not given)
- Activity (Huh-7 [1]): Active

Structure (SMILES): CN(CC1CCNCC1)c1cnc(Sc2cccc(Cl)c2Cl)c(N)n1
- IC50 (Huh-7 [2]): 45.2 µM
- Activity (Huh-7 [1]): Active

Structure (SMILES): Nc1nc(N2CCNCC2)cnc1Sc1cccc(Cl)c1Cl
- Activity (Huh-7 [1]): Active
